Experimental data: article PMC6874530, “Structural analysis identifies an escape route from the adverse lipogenic effects of liver X receptor ligands” (Communications Biology, 2019)
Where two headings read alike, the source gives them in different places.

Columns and labels:
Abca1 mRNA in intestine = assay: intestinal Abca1 mRNA induction in C57BL/6 mice (Emax model); type: in vivo, mouse; conditions: for ED50: Mus musculus
Description: All procedures involving animals were conducted in accordance with accepted standards of good animal practice and approved by the respective local animal ethics committees (Gothenburg region Local Ethics Review Committee on Animal experiments and University of Virginia Animal Care and Use Committee). Male C57BL/6JOlaHsd mice were retrieved from Harlan Laboratories (Horst, The Netherlands) around 7 weeks of age. In the studies with BMS-852907, male 8-week C57BL/6J mice (Jackson Laboratories) were used. Mice were given ad libitum access to water and standard rodent chow during the studies.
Solid compounds were solubilized in PEG400/Ethanol/Solutol/Water solution (36.3/9.1/4.6/50%). Compounds were given daily by oral gavage, 5 ml kg^−1, at doses ranging from 0.1 to 100 μmol kg^−1 of body weight for 4 days. Animals were terminated 3 h after the last dose.
At termination, the whole-blood volume was drawn from isoflurane-anesthetized mice via an incision in the carotid artery into EDTA blood tubes (S-Monovette®, EDTA KE/1.3 mL, Sarstedt, Nümbrecht, Germany or BD Microtainers®, Benton, Dickinson and Company, Franklin Lakes, New Jersey, USA). Blood samples were placed on ice and centrifuged within an hour (15 min, 2500 × g, 4 °C or 5 min, 16000 × g, 4 °C). The plasma was then dispensed in separate tubes and kept at −80 °C for later analysis of compound concentration and TG levels. For the analysis of intestinal Abca1 transcript levels, a 3–5-mm long segment of the duodenum was excised and cleared from any gut contents. Tissues were instantly snap frozen in liquid nitrogen and stored at −80 °C.
Snap-frozen intestinal tissues were quickly disrupted in QIAzol® (Qiagen, Hilden, Germany) or PureZOL™ (Bio-Rad Laboratories, Hercules, California, USA) by using a bead tissue homogenizer. Lysates were mixed with chloroform and centrifuged at 6000 × g for 15 min at 4 °C. Total RNA was purified from the upper aqueous phase on the ABI PRISM™ 6100 Nucleic Acid PrepStation (Applied Biosystems, Foster City, USA) or by using the RNeasy kit® (QIAGEN Sciences Inc., Germantown, Maryland, USA) including on-column DNase treatment by using the respective manufacturer’s protocol and reagents. Concentration of total RNA was determined on a NanoDrop™ ND-100 Spectrophotometer (Saveen Werner, Lögstrup, Sweden). The RNA templates were transferred to cDNA by reverse transcription by using the High-Capacity cDNA Reverse Transcription Kit (Applied Biosystems, Foster City, USA) according to the manufacturer’s protocol. Mouse ATP-binding cassette subfamily A member 1 (Abca1) was analyzed by using the forward primer 5′-[…]-3′, reverse primer 5′-[…]-3′, and the dual-labeled probe 5′-6FAM-[…]-TAMRA-3′. Mouse ribosomal protein large P0 (Rplp0, 36b4) was analyzed by using the forward primer 5′-[…]-3′, reverse primer 5′-[…]-3′, and the FAM-labeled probe 5′-[…]-TAMRA-3′. In the study with BMS-852907, RT-qPCR reactions were carried out in separate triplicate wells for Abca1 and Rplp0, respectively, by using 20 ng of cDNA template, 385 nM of the above-mentioned primers, and iQ™ SYBR Green Supermix (Bio-Rad, Hercules, California, USA) on a Bio-Rad MyiQ instrument (Bio-Rad, Hercules, California, USA). In the other studies, 400 nM Abca1 forward and reverse primers, 200 nM Abca1 probe, 200 nM Rplp0 forward and reverse primers, and 100 nM Rplp0 probe were mixed with 15 ng of cDNA template and TaqMan™ Gene Expression Master Mix (Applied Biosystems, Foster City, USA). The RT-qPCR reactions were performed on a 7500 Real-time PCR system (Applied Biosystems, Foster City, USA). Cycle threshold values (Ct) were retrieved from the instrument software. Relative changes in mRNA expression were calculated by using the comparative cycle method (2^−ΔΔCt). […]

LXRα = biological target: T1, LXRα (Homo sapiens, UniProt Q13133); assay: Gal4 one hybrid reporter gene (transactivation) assay in U2OS cells, LXRα; type: cell-based; conditions: for EC50: U2OS cells, Gal4-LXRα LBD, read-out: LXRα transactivation pEC50 (converted); for Emax: U2OS, 40 h, read-out: LXRα transactivation Agonist efficacy, %
T1 construct: expression vectors pSG5-Gal4-LXRα LBD or pSG5-Gal4-LXRβ LBD; expressed in transfected cells; host or cells: U2OS osteosarcoma cells
T1 sequence (Q13133 209-447 limits assumed): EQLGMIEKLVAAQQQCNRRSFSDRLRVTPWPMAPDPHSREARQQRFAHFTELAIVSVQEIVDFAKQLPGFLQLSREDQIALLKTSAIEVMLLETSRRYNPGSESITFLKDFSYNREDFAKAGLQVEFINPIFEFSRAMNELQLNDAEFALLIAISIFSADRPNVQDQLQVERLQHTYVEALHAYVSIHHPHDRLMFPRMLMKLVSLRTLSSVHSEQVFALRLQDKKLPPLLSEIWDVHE
Description: Transactivation assays were performed in U2OS osteosarcoma cells (ATCC, USA). […] Ligands were added at ten different concentrations 2 h post transfection and the luciferase activity was measured after 40 h.

LXRα LBD = biological target: T2, LXRα LBD (Homo sapiens, UniProt Q13133); assay: biochemical
T2 sequence (Q13133 200-447): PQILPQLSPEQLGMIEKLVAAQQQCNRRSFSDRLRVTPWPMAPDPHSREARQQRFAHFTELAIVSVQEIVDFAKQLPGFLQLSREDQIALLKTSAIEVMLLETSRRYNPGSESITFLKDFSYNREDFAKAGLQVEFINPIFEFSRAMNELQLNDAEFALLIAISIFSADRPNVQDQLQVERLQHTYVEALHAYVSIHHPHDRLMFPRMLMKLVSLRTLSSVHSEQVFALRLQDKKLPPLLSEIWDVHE
Description: The compounds were run in triplicate (binding assay) or in quadruplicate (transactivation assay). Standard deviations are indicated for individual experiments run more than once.

[1] = po, read-out: Abca1 mRNA induction in intestine Attributed class
[2] = oral gavage daily for 4 days, C57BL/6 mice, (% RSE), read-out: Abca1 mRNA induction in intestine ED50
[3] = maximal activation compared with a reference full agonist, value (SD, n)
[4] = Receptor-binding affinity pKi LXRα, value (SD, n independent experiments)

## CC(C)N1C(=O)C(NC2CCN(c3ncc(CC(=O)O)cc3Cl)CC2)=C(c2ccccc2)S1(=O)=O [AZ6]
Abca1 mRNA in intestine
  class of intestinal Abca1 induction: high ABCA1 inducers
Abca1 mRNA in intestine; [1]
  ED50: ≤ 11.3 µmol/kg
Abca1 mRNA in intestine; [2]
  ED50: 11.3 µmol/kg
LXRα; value (SD, n)
  EC50: 1230 nM
LXRα; [3]
  Emax: 87.8%
LXRα LBD; [4]
  Ki: 1580 nM

## O=C1C(Cc2ccccc2)=C(NCCCCc2ccccc2)C(=O)N1Cc1ccccc1 [AZ8]
Abca1 mRNA in intestine
  class of intestinal Abca1 induction: low ABCA1 inducers
Abca1 mRNA in intestine; [1]
  ED50: > 11.3 µmol/kg
Abca1 mRNA in intestine; [2]
  ED50: 341 µmol/kg
LXRα; value (SD, n)
  EC50: 1740 nM
LXRα; [3]
  Emax: 91.5%
LXRα LBD; [4]
  Ki: 195 nM

## O=S(=O)(c1ccccc1)N(CC(F)(F)F)c1ccc(C(O)(C(F)(F)F)C(F)(F)F)cc1 [T0901317, reference compound]
Abca1 mRNA in intestine; [1]
  ED50: ≤ 11.3 µmol/kg
Abca1 mRNA in intestine; [2]
  ED50: 4.11 µmol/kg
LXRα; [3]
  LXRα transactivation Agonist efficacy, %: 100.8 (7.4, n = 4) %

## CC(C)N1C(=O)C(NCCCCc2cccc(S(N)(=O)=O)n2)=C(c2ccccc2)S1(=O)=O [AZ3]
Abca1 mRNA in intestine; [1]
  ED50: ≤ 11.3 µmol/kg
Abca1 mRNA in intestine; [2]
  ED50: 1.49 µmol/kg
LXRα; value (SD, n)
  EC50: 813 nM
LXRα; [3]
  Emax: 142%
LXRα LBD; [4]
  Ki: 501 nM

## CC(CCCc1cccc(S(N)(=O)=O)n1)NC1=C(c2ccccc2)S(=O)(=O)N(C(C)C)C1=O (centres unmarked) [AZ2]
Abca1 mRNA in intestine; [1]
  ED50: ≤ 11.3 µmol/kg
Abca1 mRNA in intestine; [2]
  ED50: 9.64 µmol/kg
LXRα; value (SD, n)
  EC50: 77.6 nM
LXRα; [3]
  Emax: 111%
LXRα LBD; [4]
  Ki: 91.2 nM

## CN(C)C(=O)c1cnc(N2CC[C@@H](CNC3=C(c4ccccc4)S(=O)(=O)N(C(C)(C)C)C3=O)C2)c(Cl)c1 [AZ5]
Abca1 mRNA in intestine
  class of intestinal Abca1 induction: low ABCA1 inducers
Abca1 mRNA in intestine; [1]
  ED50: > 11.3 µmol/kg
Abca1 mRNA in intestine; [2]
  ED50: 17.2 µmol/kg
LXRα; value (SD, n)
  EC50: 1070 nM
LXRα; [3]
  Emax: 60.5%
LXRα LBD; [4]
  Ki: 2140 nM

## CN(C)C(=O)c1cccc(CCCCNC2=C(c3ccccc3)S(=O)(=O)N(C(C)(C)C)C2=O)c1 [AZ1]
Abca1 mRNA in intestine
  class of intestinal Abca1 induction: high ABCA1
Abca1 mRNA in intestine; [1]
  ED50: ≤ 11.3 µmol/kg
Abca1 mRNA in intestine; [2]
  ED50: < 30 µmol/kg
LXRα; value (SD, n)
  EC50: 110 nM
LXRα; [3]
  Emax: 102%
LXRα LBD; [4]
  Ki: 91.2 nM

## CC(C)(C)N1C(=O)C(Cc2ccccc2)=C(NC2CCN(c3ncc(CC(=O)O)cc3Cl)CC2)C1=O [AZ7]
Abca1 mRNA in intestine
  class of intestinal Abca1 induction: high ABCA1
Abca1 mRNA in intestine; [1]
  ED50: ≤ 11.3 µmol/kg
Abca1 mRNA in intestine; [2]
  ED50: < 30 µmol/kg
LXRα; value (SD, n)
  EC50: 1100 nM
LXRα; [3]
  Emax: 85.3%
LXRα LBD; [4]
  Ki: 1070 nM
LXRα LBD; binding affinity to LXRα
  Ki: 1000 nM

## O=C(O)Cc1cccc(OCCCN(Cc2cccc(C(F)(F)F)c2Cl)CC(c2ccccc2)c2ccccc2)c1 [GW3965, reference compound]
Abca1 mRNA in intestine; [1]
  ED50: ≤ 11.3 µmol/kg
Abca1 mRNA in intestine; [2]
  ED50: 0.969 µmol/kg
LXRα; value (SD, n)
  EC50: 1100 nM
LXRα; [3]
  Emax: 93.5%
LXRα LBD; [4]
  Ki: 158 nM

## O=C(O)Cc1ccc(CNC(=O)[C@@H]2Cc3ccccc3N2S(=O)(=O)c2ccc(-c3ccccc3C(F)(F)F)cc2)cc1 [F1, reference compound]
Abca1 mRNA in intestine
  class of intestinal Abca1 induction: high ABCA1
Abca1 mRNA in intestine; [1]
  ED50: ≤ 11.3 µmol/kg
Abca1 mRNA in intestine; [2]
  ED50: < 30 µmol/kg
LXRα; Gal4 reporter gene assays
  Potency-based LXRα selectivity over LXRβ: 7 fold
LXRα; value (SD, n)
  EC50: 562 nM
LXRα; [3]
  Emax: 84%
LXRα LBD; [4]
  Ki: 10.2 nM
LXRα LBD; binding affinity to LXRα
  Ki: 10 nM

## CC(C)(O)c1cn(-c2ccc(-c3cc(F)c(CO)c(S(C)(=O)=O)c3)cc2F)c(C(C)(C)c2c(Cl)cccc2Cl)n1 [BMS-852927]
Abca1 mRNA in intestine; [1]
  ED50: ≤ 11.3 µmol/kg
Abca1 mRNA in intestine; [2]
  ED50: 2.1 µmol/kg
LXRα
  agonist activity in the Gal4 reporter gene assay, LXRα: No signal was observed

## CC(C)(C)N1C(=O)C(NC2CCN(c3ncc(CC(=O)O)cc3Cl)CC2)=C(c2ccccc2)S1(=O)=O [AZ4]
Abca1 mRNA in intestine; [1]
  ED50: ≤ 11.3 µmol/kg
Abca1 mRNA in intestine; [2]
  ED50: 5.65 µmol/kg
LXRα; value (SD, n)
  EC50: 427 nM
LXRα; [3]
  Emax: 103%
LXRα LBD; [4]
  Ki: 355 nM

## Fc1ccc(-c2c3cccc(C(F)(F)F)c3nn2Cc2ccc(F)cc2Cl)cc1 [LXR-623, reference compound]
Abca1 mRNA in intestine
  class of intestinal Abca1 induction: low ABCA1 inducers
Abca1 mRNA in intestine; [1]
  ED50: > 11.3 µmol/kg
Abca1 mRNA in intestine; [2]
  ED50: 31.5 µmol/kg
LXRα; value (SD, n)
  EC50: 2570 nM
LXRα; [3]
  Emax: 102%
LXRα LBD
  Ki: 490 nM
